Assay: Cytotoxicity against human multi drug-resistant CEM/VBL100 cells in presence of vinblastine
Format: functional, cell-based

Compared with CC[C@H](C)[C@@H]1NC(=O)c2csc(n2)[C@@H](C(C)C)NC(=O)[C@H]2N=C(O[C@@H]2C)[C@H]([C@@H](C)CC)NC(=O)c2csc(n2)[C@@H](C(C)C)NC(=O)[C@@H]2COC1=N2 [PATELLAMIDE A], CC[C@H](C)[C@@H]1NC(=O)c2csc(n2)[C@@H](C)NC(=O)[C@H]2N=C(O[C@@H]2C)[C@H](C(C)C)NC(=O)c2csc(n2)[C@@H](Cc2ccccc2)NC(=O)[C@H]2N=C1O[C@@H]2C [PATELLAMIDE C] is 7.5-fold lower in IC50: 90 nM for the first, 12 nM for the second.

First: CC[C@H](C)[C@@H]1NC(=O)c2csc(n2)[C@@H](C)NC(=O)[C@H]2N=C(O[C@@H]2C)[C@H](CC(C)C)NC(=O)c2csc(n2)[C@@H](Cc2ccccc2)NC(=O)[C@H]2N=C1O[C@@H]2C [PATELLAMIDE B]
Second: CC[C@H](C)[C@@H]1NC(=O)c2csc(n2)[C@@H](Cc2ccccc2)NC(=O)[C@H]2N=C(O[C@@H]2C)[C@H](CC(C)C)NC(=O)c2csc(n2)[C@@H](C)NC(=O)[C@H]([C@H](C)O)NC1=O [PATELLAMIDE G]
The IC50 of the first is 5-fold lower: 12 nM for the first, 60 nM for the second.

Compared with CC(C)C[C@H]1NC(=O)[C@H]([C@H](C)O)NC(=O)[C@H]2CSSC[C@@H](NC(=O)c3csc1n3)C(=O)N[C@@H]([C@H](C)O)C(=O)N[C@H](Cc1ccccc1)c1nc(cs1)C(=O)N2 [ULITHIACYCLAMIDE E], CC(C)C[C@H]1NC(=O)[C@H]([C@H](C)O)NC(=O)[C@H]2CSSC[C@@H](NC(=O)c3csc1n3)C1=N[C@H](C(=O)N[C@H](Cc3ccccc3)c3nc(cs3)C(=O)N2)[C@@H](C)O1 [ULITHIACYCLAMIDE F] is 2.5-fold lower in IC50: 112 nM for the first, 44 nM for the second. The second is the more potent here.

For CC(C)C[C@H]1NC(=O)[C@H]2N=C(O[C@@H]2C)[C@H]2CSSC[C@@H](NC(=O)c3csc1n3)C(=O)N[C@@H]([C@H](C)O)C(=O)N[C@H](Cc1ccccc1)c1nc(cs1)C(=O)N2 [ULITHIACYCLAMIDE G], the IC50 was 90 nM.

Assay: Cytotoxicity against human multi drug-resistant CEM/VBL100 cells
Format: functional, cell-based

CC[C@]1(O)C[C@@H]2CN(CCc3c([nH]c4ccccc34)[C@@](C(=O)OC)(c3cc4c(cc3OC)N(C)[C@H]3[C@@](O)(C(=O)OC)[C@H](OC(C)=O)[C@]5(CC)C=CCN6CC[C@]43[C@@H]65)C2)C1 [VINBLASTINE] showed an IC50 of 90 nM.

— ChEMBL document CHEMBL1151331, “New cyclic peptides from the ascidian Lissoclinum patella” (J Nat Prod, 1998)
